# From ChEMBL document CHEMBL3992552, “Mechanisms of action and structure-activity relationships of cytotoxic flavokawain derivatives” (Bioorg Med Chem, 2017)
# Activity calls are given as the source filed them. No cut-off for these calls is given here.
# Test system: Huh-7
# Assay: Cytotoxicity against human HuH7 cells assessed as cell viability after 48 hrs by Hoechst 33342 staining based assay
# Format: functional
# Settings: Huh-7, 48 h
row,SMILES,IC50 [µM]
1,COc1cc(O)c(C(=O)/C=C/c2ccc(F)cc2)c(OC)c1,> 20

# Test system: Caco-2
# Assay: Cell cycle arrest in human Caco2 cells assessed as mitotic index at 25 uM measured after 48 hrs by Hoechst staining based fluorescence assay (reference value: 3.6)
# Format: functional
# Settings: not given
row,SMILES,Activity_index
1,COc1cc(O)c(C(=O)/C=C/c2ccc(F)cc2)c(OC)c1,24.8

# Test system: Huh-7
# Assay: Cytotoxicity against human HuH7 cells assessed as cell survival at 50 uM after 48 hrs by Hoechst 33342 staining based assay relative to control
# Format: functional
# Settings: Huh-7, 48 h, read-out: Survival
row,SMILES,viability at 50 µM [%]
1,COc1cc(O)c(C(=O)/C=C/c2ccc(F)cc2)c(OC)c1,66

# Test system: HaCaT
# Assay: Cell cycle arrest in human HaCaT cells harboring […] p53 assessed as mitotic index at 25 uM measured after 48 hrs by Hoechst staining based fluorescence assay (reference value: 2.6)
# Format: functional
# Settings: not given
row,SMILES,Activity
1,COc1cc(O)c(C(=O)/C=C/c2ccc(F)cc2)c(OC)c1,inactive

# Test system: PC-3
# Assay: Cell cycle arrest in human PC3 cells harboring p53 mutant assessed as mitotic index at 25 uM measured after 48 hrs by Hoechst staining based fluorescence assay (reference value: 2.5)
# Format: functional
# Settings: not given
row,SMILES,Activity_index
1,COc1cc(O)c(C(=O)/C=C/c2ccc(F)cc2)c(OC)c1,5.3

# Test system: HCT-116
# Assay: Cell cycle arrest in human HCT116 cells harboring wild-type p53 assessed as accumulation at S phase at 10 uM measured after 48 hrs by Hoechst/BrdU staining based fluorescence assay (reference value: 68.4%)
# Format: functional
# Settings: not given
row,SMILES,Activity [%]
1,COc1cc(O)c(C(=O)/C=C/c2ccc(F)cc2)c(OC)c1,59

# Test system: HCT-116
# Assay: Induction of apoptosis in human HCT116 cells harboring wild-type p53 assessed as increase in cleaved caspase3 at 2 times IC50 after 48 hrs by Hoechst staining based assay
# Format: functional, cell-based
# Settings: not given
row,SMILES,Activity
1,COc1cc(O)c(C(=O)/C=C/c2ccc(F)cc2)c(OC)c1,Active

# Test system: HCT-116
# Assay: Induction of apoptosis in human HCT116 cells harboring wild-type p53 assessed as increase in late apoptosis at 2 times IC50 after 48 hrs by YoPro/propidium iodide/Hoechst staining based assay
# Format: functional, cell-based
# Settings: not given
row,SMILES,Activity
1,COc1cc(O)c(C(=O)/C=C/c2ccc(F)cc2)c(OC)c1,Active

# Test system: Caco-2
# Assay: Cell cycle arrest in human Caco2 cells assessed as accumulation at M phase by Hoechst staining based fluorescence assay
# Format: functional
# Settings: not given
row,SMILES,Activity
1,COc1cc(O)c(C(=O)/C=C/c2ccc(F)cc2)c(OC)c1,Active

# Test system: not listed separately
# Assay: Cytotoxicity against human fibroblasts assessed as cell survival at 50 uM after 48 hrs by Hoechst 33342 staining based assay relative to control
# Parameters: species or system Fibroblast
# Settings: read-out: Survival
row,SMILES,"viability at 48 h, 50 µM [%]"
1,COc1cc(O)c(C(=O)/C=C/c2ccc(F)cc2)c(OC)c1,> 80

# Test system: Fibroblast
# Assay: Cytotoxicity against human fibroblasts assessed as cell viability after 48 hrs by Hoechst 33342 staining based assay
# Settings: not given
row,SMILES,IC50 [µM]
1,COc1cc(O)c(C(=O)/C=C/c2ccc(F)cc2)c(OC)c1,> 20

# Test system: Caco-2
# Assay: Cytotoxicity against human Caco2 cells assessed as cell viability after 48 hrs by Hoechst 33342 staining based assay
# Format: functional
# Settings: Caco-2, 48 h
row,SMILES,IC50 [µM]
1,COc1cc(O)c(C(=O)/C=C/c2ccc(F)cc2)c(OC)c1,9.2

# Test system: PC-3
# Assay: Induction of apoptosis in human PC3 cells harboring p53 mutant assessed as increase in early apoptosis at 2 times IC50 after 48 hrs by YoPro/propidium iodide/Hoechst staining based assay
# Format: functional, cell-based
# Settings: not given
row,SMILES,Activity
1,COc1cc(O)c(C(=O)/C=C/c2ccc(F)cc2)c(OC)c1,Active

# Test system: NCI-H727
# Assay: Cell cycle arrest in human NCI-H727 cells harboring p53 mutant assessed as mitotic index at 25 uM measured after 48 hrs by Hoechst staining based fluorescence assay (reference value: 1.1)
# Format: functional
# Settings: not given
row,SMILES,Activity
1,COc1cc(O)c(C(=O)/C=C/c2ccc(F)cc2)c(OC)c1,inactive

# Test system: PC-3
# Assay: Cytotoxicity against human PC3 cells assessed as cell viability after 48 hrs by Hoechst 33342 staining based assay
# Format: functional
# Settings: PC-3, 48 h
row,SMILES,IC50 [µM]
1,COc1cc(O)c(C(=O)/C=C/c2ccc(F)cc2)c(OC)c1,13.2

# Test system: HCT-116
# Assay: Induction of apoptosis in human HCT116 cells harboring wild-type p53 assessed as upregulation of cyclinB1 measured after 48 hrs by Hoechst staining based assay
# Format: functional, cell-based
# Settings: not given
row,SMILES,Activity
1,COc1cc(O)c(C(=O)/C=C/c2ccc(F)cc2)c(OC)c1,Active

# Test system: PC-3
# Assay: Cell cycle arrest in human PC3 cells harboring p53 mutant assessed as mitotic index at 10 uM measured after 48 hrs by Hoechst staining based fluorescence assay (reference value: 2.5)
# Format: functional
# Settings: not given
row,SMILES,Activity_index
1,COc1cc(O)c(C(=O)/C=C/c2ccc(F)cc2)c(OC)c1,2.9

# Test system: HCT-116
# Assay: Cell cycle arrest in human HCT116 cells assessed as accumulation at G1/S phase by Hoechst staining based fluorescence assay
# Format: functional
# Settings: not given
row,SMILES,Activity
1,COc1cc(O)c(C(=O)/C=C/c2ccc(F)cc2)c(OC)c1,Active

# Test system: HCT-116
# Assay: Induction of apoptosis in human HCT116 cells harboring wild-type p53 assessed as increase in early apoptosis at 2 times IC50 after 48 hrs by YoPro/propidium iodide/Hoechst staining based assay
# Format: functional, cell-based
# Settings: not given
row,SMILES,Activity
1,COc1cc(O)c(C(=O)/C=C/c2ccc(F)cc2)c(OC)c1,Active

# Test system: not listed separately
# Assay: Selectivity index, ratio of IC50 for human fibroblasts to IC50 for human PC3 cells
# Settings: not given
row,SMILES,Ratio IC50
1,COc1cc(O)c(C(=O)/C=C/c2ccc(F)cc2)c(OC)c1,>3.8

# Test system: Huh-7
# Assay: Cell cycle arrest in human HuH7 cells assessed as accumulation at S phase at 10 uM measured after 48 hrs by Hoechst/BrdU staining based fluorescence assay (reference value: 44%)
# Format: functional
# Settings: not given
row,SMILES,Activity
1,COc1cc(O)c(C(=O)/C=C/c2ccc(F)cc2)c(OC)c1,inactive

# Test system: HCT-116
# Assay: Cell cycle arrest in human HCT116 cells harboring wild-type p53 assessed as mitotic index at 10 uM measured after 48 hrs by Hoechst staining based fluorescence assay (reference value: 2.3)
# Format: functional
# Settings: not given
row,SMILES,Activity_index
1,COc1cc(O)c(C(=O)/C=C/c2ccc(F)cc2)c(OC)c1,1.2

# Test system: Caco-2
# Assay: Cell cycle arrest in human Caco2 cells assessed as accumulation at S phase at 10 uM measured after 48 hrs by Hoechst/BrdU staining based fluorescence assay (reference value: […])
# Format: functional
# Settings: not given
row,SMILES,Activity [%]
1,COc1cc(O)c(C(=O)/C=C/c2ccc(F)cc2)c(OC)c1,49

# Test system: PC-3
# Assay: Cytotoxicity against human PC3 cells assessed as cell survival at 50 uM after 48 hrs by Hoechst 33342 staining based assay relative to control
# Format: functional
# Settings: PC-3, 48 h, read-out: Survival
row,SMILES,viability at 50 µM [%]
1,COc1cc(O)c(C(=O)/C=C/c2ccc(F)cc2)c(OC)c1,56

# Test system: Caco-2
# Assay: Cell cycle arrest in human Caco2 cells assessed as mitotic index at 10 uM measured after 48 hrs by Hoechst staining based fluorescence assay (reference value: 3.6)
# Format: functional
# Settings: not given
row,SMILES,Activity_index
1,COc1cc(O)c(C(=O)/C=C/c2ccc(F)cc2)c(OC)c1,6.3

# Test system: MDA-MB-231
# Assay: Cell cycle arrest in human MDA-MB-231 cells harboring p53 mutant assessed as mitotic index at 25 uM measured after 48 hrs by Hoechst staining based fluorescence assay (reference value: 2.1)
# Format: functional
# Settings: not given
row,SMILES,Activity
1,COc1cc(O)c(C(=O)/C=C/c2ccc(F)cc2)c(OC)c1,inactive

# Test system: NCI-H727
# Assay: Cytotoxicity against human NCI-H727 cells assessed as cell viability after 48 hrs by Hoechst 33342 staining based assay
# Format: functional
# Settings: NCI-H727, 48 h
row,SMILES,IC50 [µM]
1,COc1cc(O)c(C(=O)/C=C/c2ccc(F)cc2)c(OC)c1,> 20

# Test system: Huh-7
# Assay: Cell cycle arrest in human HuH7 cells assessed as accumulation at S phase at 25 uM measured after 48 hrs by Hoechst/BrdU staining based fluorescence assay (reference value: 44%)
# Format: functional
# Settings: not given
row,SMILES,Activity
1,COc1cc(O)c(C(=O)/C=C/c2ccc(F)cc2)c(OC)c1,inactive

# Test system: MCF7
# Assay: Induction of apoptosis in human MCF7 cells harboring wild-type p53 assessed as upregulation of cyclinB1 measured after 18 hrs by Hoechst staining based assay
# Format: functional, cell-based
# Settings: not given
row,SMILES,Activity
1,COc1cc(O)c(C(=O)/C=C/c2ccc(F)cc2)c(OC)c1,Active

# Test system: MCF7
# Assay: Induction of apoptosis in human MCF7 cells harboring wild-type p53 assessed as upregulation of p21 measured after 48 hrs by Hoechst staining based fluorescence assay
# Format: functional, cell-based
# Settings: not given
row,SMILES,Activity
1,COc1cc(O)c(C(=O)/C=C/c2ccc(F)cc2)c(OC)c1,Active

# Test system: PC-3
# Assay: Induction of apoptosis in human PC3 cells harboring p53 mutant assessed as increase in cleaved caspase3 at 2 times IC50 after 48 hrs by Hoechst staining based assay
# Format: functional, cell-based
# Settings: not given
row,SMILES,Activity
1,COc1cc(O)c(C(=O)/C=C/c2ccc(F)cc2)c(OC)c1,Active

# Test system: NCI-H727
# Assay: Cell cycle arrest in human NCI-H727 cells harboring p53 mutant assessed as mitotic index at 10 uM measured after 48 hrs by Hoechst staining based fluorescence assay (reference value: 1.1)
# Format: functional
# Settings: not given
row,SMILES,Activity
1,COc1cc(O)c(C(=O)/C=C/c2ccc(F)cc2)c(OC)c1,inactive
